Legend:
[1] = molecular target: T1, SST5 (Homo sapiens, UniProt P35346); assay: GPCR radioligand binding (RLB) assay, somatostatin SST5, [125I]SST-14; settings: for SSTS inhibition at 10 micromolar: Example Library 4
T1 construct: purchased Perkin Elmer BioSignal; host or cells: HEK 293
Outline: (§1)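 Competition binding against radioligand ([125I]NDP-αMSH for MC4, [125I]SST-14 for SST5) on membranes of HEK 293 cells carrying the human receptor; buffer and incubation time optimized per receptor. Filtration through 0.5% PEI-treated glass fiber, washing, then scintillation counting.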

[2] = molecular target: T2, MC4 (Homo sapiens, UniProt P32245); assay: GPCR radioligand binding (RLB) assay, melanocortin MC4, [125I]NDP-αMSH
T2 construct: purchased Perkin Elmer BioSignal; host or cells: HEK 293
T2 sequence (P32245 whole entry): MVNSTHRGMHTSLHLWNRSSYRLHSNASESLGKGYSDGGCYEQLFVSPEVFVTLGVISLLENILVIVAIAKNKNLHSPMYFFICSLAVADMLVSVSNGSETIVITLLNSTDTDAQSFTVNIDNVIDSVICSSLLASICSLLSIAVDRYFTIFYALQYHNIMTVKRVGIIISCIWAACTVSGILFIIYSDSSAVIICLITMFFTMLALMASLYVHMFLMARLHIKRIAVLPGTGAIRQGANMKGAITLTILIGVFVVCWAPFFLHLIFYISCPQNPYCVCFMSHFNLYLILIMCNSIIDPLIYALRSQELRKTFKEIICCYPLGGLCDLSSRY
Outline: as §1

[3] = 10 micromolar, Example Library 4
[4] = 10 micromolar compound, recombinant human receptor membranes (HEK 293)

T1 sequence (P35346 whole entry): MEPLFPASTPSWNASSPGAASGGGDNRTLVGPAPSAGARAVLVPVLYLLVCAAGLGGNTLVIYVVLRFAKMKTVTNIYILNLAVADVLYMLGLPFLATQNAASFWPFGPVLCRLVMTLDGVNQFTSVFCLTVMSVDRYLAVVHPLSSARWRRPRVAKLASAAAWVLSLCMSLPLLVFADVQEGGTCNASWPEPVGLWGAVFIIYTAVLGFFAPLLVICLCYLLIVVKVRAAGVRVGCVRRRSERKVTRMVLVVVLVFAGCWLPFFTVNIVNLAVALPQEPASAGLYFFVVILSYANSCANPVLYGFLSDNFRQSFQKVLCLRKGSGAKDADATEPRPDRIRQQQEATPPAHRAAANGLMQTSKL

Structure (SMILES) | SSTS inhibition at 10 micromolar [1] | MC4 inhibition at 10 micromolar [2, 3] | SST5 inhibition at 10 micromolar [1, 4] | MC4 inhibition at 10 micromolar [2, 4]
COCC1OC(OCCc2ccccc2)C(NC(=O)CNC(=N)N)C(OCc2ccc(Cl)cc2)C1O (centres unmarked) [Compound 267] | + (Indicates inhibition greater than . . . 50%) | + (Indicates inhibition greater than . . . 50%) | – | –
COCC1OC(OCCc2ccccc2)C(NC(=O)CCN)C(OCc2ccc(Cl)cc2)C1O (centres unmarked) [Compound 268] | + (Indicates inhibition greater than . . . 50%) | + (Indicates inhibition greater than . . . 50%) | – | –
COCC1OC(OCCc2ccccc2)C(NC(=O)CCNC(=N)N)C(OCc2ccc(Cl)cc2)C1O (centres unmarked) [Compound 269] | + (Indicates inhibition greater than . . . 50%) | + (Indicates inhibition greater than . . . 50%) | – | –
COCC1OC(OCCc2ccccc2)C(NC(=O)CCCN)C(OCc2ccc(Cl)cc2)C1O (centres unmarked) [Compound 270] | + (Indicates inhibition greater than . . . 50%) | + (Indicates inhibition greater than . . . 50%) | – | –
COCC1OC(OCCc2ccccc2)C(NC(=O)CCCNC(=N)N)C(OCc2ccc(Cl)cc2)C1O (centres unmarked) [Compound 271] | + (Indicates inhibition greater than . . . 50%) | + (Indicates inhibition greater than . . . 50%) | – | –
COCC1OC(OCCc2ccccc2)C(NC(=O)CN)C(OCc2ccc(-c3ccccc3)cc2)C1O (centres unmarked) [Compound 272] | + (Indicates inhibition greater than . . . 50%) | + (Indicates inhibition greater than . . . 50%) | – | –
COCC1OC(OCCc2ccccc2)C(NC(=O)CNC(=N)N)C(OCc2ccc(-c3ccccc3)cc2)C1O (centres unmarked) [Compound 273] | + (Indicates inhibition greater than . . . 50%) | + (Indicates inhibition greater than . . . 50%) | – | –
COCC1OC(OCCc2ccccc2)C(NC(=O)CN)C(OCc2ccc(-c3ccccc3)cc2)C1O (centres unmarked) [Compound 274] | + (Indicates inhibition greater than . . . 50%) | + (Indicates inhibition greater than . . . 50%) | – | –
COCC1OC(OCCc2ccccc2)C(NC(=O)CCNC(=N)N)C(OCc2ccc(-c3ccccc3)cc2)C1O (centres unmarked) [Compound 275] | + (Indicates inhibition greater than . . . 50%) | + (Indicates inhibition greater than . . . 50%) | – | –
COCC1OC(OCCc2ccccc2)C(NC(=O)CCCN)C(OCc2ccc(-c3ccccc3)cc2)C1O (centres unmarked) [Compound 276] | + (Indicates inhibition greater than . . . 50%) | + (Indicates inhibition greater than . . . 50%) | – | –
COCC1OC(OCCc2ccccc2)C(NC(=O)CCCNC(=N)N)C(OCc2ccc(-c3ccccc3)cc2)C1O (centres unmarked) [Compound 277] | + (Indicates inhibition greater than . . . 50%) | + (Indicates inhibition greater than . . . 50%) | – | –
COCC1OC(OCCc2ccccc2)C(NC(=O)CN)C(OCc2ccc3ccccc3c2)C1O (centres unmarked) [Compound 278] | + (Indicates inhibition greater than . . . 50%) | + (Indicates inhibition greater than . . . 50%) | – | –
COCC1OC(OCCc2ccccc2)C(NC(=O)CNC(=N)N)C(OCc2ccc3ccccc3c2)C1O (centres unmarked) [Compound 279] | + (Indicates inhibition greater than . . . 50%) | + (Indicates inhibition greater than . . . 50%) | – | –
COCC1OC(OCCc2ccccc2)C(NC(=O)CN)C(OCc2ccc3ccccc3c2)C1O (centres unmarked) [Compound 280] | + (Indicates inhibition greater than . . . 50%) | + (Indicates inhibition greater than . . . 50%) | – | –
COCC1OC(OCCc2ccccc2)C(NC(=O)CCNC(=N)N)C(OCc2ccc3ccccc3c2)C1O (centres unmarked) [Compound 281] | + (Indicates inhibition greater than . . . 50%) | + (Indicates inhibition greater than . . . 50%) | – | –
COCC1OC(OCCc2ccccc2)C(NC(=O)CCCN)C(OCc2ccc3ccccc3c2)C1O (centres unmarked) [Compound 282] | + (Indicates inhibition greater than . . . 50%) | + (Indicates inhibition greater than . . . 50%) | – | –
COCC1OC(OCCc2ccccc2)C(NC(=O)CCCNC(=N)N)C(OCc2ccc3ccccc3c2)C1O (centres unmarked) [Compound 283] | + (Indicates inhibition greater than . . . 50%) | + (Indicates inhibition greater than . . . 50%) | – | –

Structure (SMILES) | SSTS inhibition at 10 micromolar [1] | MC4 inhibition at 10 micromolar [2, 3] | SST5 inhibition at 10 micromolar [1, 4] | MC4 inhibition at 10 micromolar [2, 4]
COCC1OC(OCc2ccc3ccccc3c2)C(NC(=O)CNC(=N)N)C(OCc2ccccc2)C1O (centres unmarked) [Compound 285] | + (Indicates inhibition greater than . . . 50%) | + (Indicates inhibition greater than . . . 50%) | – | –
COCC1OC(OCc2ccc3ccccc3c2)C(NC(=O)CN)C(OCc2ccccc2)C1O (centres unmarked) [Compound 286] | + (Indicates inhibition greater than . . . 50%) | + (Indicates inhibition greater than . . . 50%) | – | –
COCC1OC(OCc2ccc3ccccc3c2)C(NC(=O)CCNC(=N)N)C(OCc2ccccc2)C1O (centres unmarked) [Compound 287] | + (Indicates inhibition greater than . . . 50%) | + (Indicates inhibition greater than . . . 50%) | – | –
COCC1OC(OCc2ccc3ccccc3c2)C(NC(=O)CNC(=N)N)C(OCc2ccc(Cl)cc2)C1O (centres unmarked) [Compound 291] | + (Indicates inhibition greater than . . . 50%) | + (Indicates inhibition greater than . . . 50%) | – | –
COCC1OC(OCc2ccc3ccccc3c2)C(NC(=O)CCNC(=N)N)C(OCc2ccc(Cl)cc2)C1O (centres unmarked) [Compound 293] | + (Indicates inhibition greater than . . . 50%) | + (Indicates inhibition greater than . . . 50%) | – | –
COCC1OC(OCc2ccc3ccccc3c2)C(NC(=O)CCCN)C(OCc2ccc(Cl)cc2)C1O (centres unmarked) [Compound 294] | + (Indicates inhibition greater than . . . 50%) | + (Indicates inhibition greater than . . . 50%) | – | –
COCC1OC(OCc2ccc3ccccc3c2)C(NC(=O)CCCNC(=N)N)C(OCc2ccc(Cl)cc2)C1O (centres unmarked) [Compound 295] | + (Indicates inhibition greater than . . . 50%) | + (Indicates inhibition greater than . . . 50%) | – | –
COCC1OC(OCc2ccc3ccccc3c2)C(NC(=O)CNC(=N)N)C(OCc2ccc(-c3ccccc3)cc2)C1O (centres unmarked) [Compound 297] | + (Indicates inhibition greater than . . . 50%) | + (Indicates inhibition greater than . . . 50%) | – | –
COCC1OC(OCc2ccc3ccccc3c2)C(NC(=O)CN)C(OCc2ccc(-c3ccccc3)cc2)C1O (centres unmarked) [Compound 298] | + (Indicates inhibition greater than . . . 50%) | + (Indicates inhibition greater than . . . 50%) | – | –
COCC1OC(OCc2ccc3ccccc3c2)C(NC(=O)CCNC(=N)N)C(OCc2ccc(-c3ccccc3)cc2)C1O (centres unmarked) [Compound 299] | + (Indicates inhibition greater than . . . 50%) | + (Indicates inhibition greater than . . . 50%) | – | –
COCC1OC(OCc2ccc3ccccc3c2)C(NC(=O)CCCN)C(OCc2ccc(-c3ccccc3)cc2)C1O (centres unmarked) [Compound 300] | + (Indicates inhibition greater than . . . 50%) | + (Indicates inhibition greater than . . . 50%) | – | –
COCC1OC(OCc2ccc3ccccc3c2)C(NC(=O)CCCNC(=N)N)C(OCc2ccc(-c3ccccc3)cc2)C1O (centres unmarked) [Compound 301] | + (Indicates inhibition greater than . . . 50%) | + (Indicates inhibition greater than . . . 50%) | – | –
COCC1OC(OCc2ccc3ccccc3c2)C(NC(=O)CN)C(OCc2ccc3ccccc3c2)C1O (centres unmarked) [Compound 302] | + (Indicates inhibition greater than . . . 50%) | + (Indicates inhibition greater than . . . 50%) | – | –
COCC1OC(OCc2ccc3ccccc3c2)C(NC(=O)CNC(=N)N)C(OCc2ccc3ccccc3c2)C1O (centres unmarked) [Compound 303] | + (Indicates inhibition greater than . . . 50%) | + (Indicates inhibition greater than . . . 50%) | – | –
COCC1OC(OCc2ccc3ccccc3c2)C(NC(=O)CCNC(=N)N)C(OCc2ccc3ccccc3c2)C1O (centres unmarked) [Compound 305] | + (Indicates inhibition greater than . . . 50%) | + (Indicates inhibition greater than . . . 50%) | – | –
COCC1OC(OCc2ccc3ccccc3c2)C(NC(=O)CCCNC(=N)N)C(OCc2ccc3ccccc3c2)C1O (centres unmarked) [Compound 307] | + (Indicates inhibition greater than . . . 50%) | + (Indicates inhibition greater than . . . 50%) | – | –
CSC1OC(COC(=O)CCC2CNc3ccccc32)C(O)C(OCc2cccc(N)c2)C1NCc1ccccc1 (centres unmarked) [Compound 311] | – | – | + (Indicates inhibition greater than . . . 50%) | + (Indicates inhibition greater than . . . 50%)

Reference: patent US7994140B2, “Classes of compounds that interact with GPCRs” (Alchemia Limited, priority 2002, dated 2011)
